Entries after “also recorded” stand apart in the source; their conditions may differ.
Columns and labels:
[1] = test system: wildtype adult mouse cochlea; assay: Proliferation and hair cell regeneration in cultured adult wildtype cochlea with ad-Atoh1; type: cell-based; details: wildtype adult cochlea culture, ad-Atoh1 infection 14 days, MHY1485 treated vs ad-Atoh1 only
Experimental: (§1) Survival was studied by analysis of apoptosis.
(§2) To evaluate if mTOR is sufficient to induce proliferation, wildtype adult mouse cochlea were cultured and treated with MYH1485 to activate mTOR pathway followed by ad-Atoh1 infection for hair cell regeneration. […] Thus activation of mTOR by MHY1485 is sufficient to induce proliferation in adult/mature cochlea and it improves hair cell regeneration efficiency mediated by Atoh1.

[2] = test system: adult rtTA/tet-NICD cochlea; assay: Proliferation and HC regeneration in Dox-treated adult rtTA/tet-NICD cochlea culture with ad-Atoh1; type: cell-based, mouse; details: for EdU+ (proliferating) cells: Dox (NICD activation) plus MHY1485, ad-Atoh1, vs Dox alone/DMSO controls, SE and Lib; for HC regeneration by ad-Atoh1 (new HCs, MYO7A+/PVALB+): Dox (NICD activation) plus MHY1485 and ad-Atoh1 vs Dox and ad-Atoh1 without MHY1485
From the text: as §1
The prominent roles in proliferation and cell growth by mTOR provided evidence that it may compensate for part of the MYC functions. To determine if mTOR activation is sufficient to replace MYC to induce proliferation in adult cochlea, mTOR was activated in Dox-treated rtTA/tet-NICD adult cochlea culture by MHY1485, a small molecule mTOR activator^8 (FIG. 1K).
as §2

[3] = test system: adult rtTA/tet-MYC/tet-NICD cochlea; details: 6 days Dox with vs without rapamycin, in vitro; SE and Lib regions
From the text: SOX2 labeled SCs. […] Arrows pointed to SOX2^+/EdU^+/p-rpS6^+ cells. […] Error bar, mean±SEM; n=5. […] Error bar, mean±SEM; n=5. (FIG. 1K) A diagram illustrating the study of the effect of mTOR activator MHY1485 on proliferation and HC regeneration. […] (FIGS. 1N-1O) Quantification of EdU^+ cells, MYO7A^+ HCs and ectopic HCs in 1-m″. *p<0.05, Student's t-test. Error bar, mean±SEM; n=5.
Whole cochlea explant organ culture and microinjection into adult cochlea were used for the study in vitro and in vivo, respectively. NOTCH1 and c-MYC were activated in adult wild type mice by virus-mediated delivery, or in adult doxycycline-inducible rtTA/tet-MYC/tet-NICD transgenic mice through supplement of doxycycline in vitro and in vivo. EdU and BrdU incorporation was used to study proliferation. Lineage tracing using Sox2-promoter-driven Cre mice (Sox2-CreER) crossed with the tdTomato (tdT) reporter mice was conducted to identify the origin of proliferating cells. The mechanisms underlying reprograming were studied by qRT-PCR, immunolabeling and the effectors that modulate mTOR pathway. Survival was studied by analysis of apoptosis.
It was hypothesized that the reprogramming effect in adult cochlea by MYC/NICD may be mediated in part by the mTOR pathway.

| Compound | EdU labeled (proliferating) cochlear cells [1] | hair cell regeneration (PVALB+/MYO7a+) [1] | EdU labeled (proliferating) cochlear cells ([1]; listed as MHY 1485) | EdU+ (proliferating) cells [2] | EdU+ (proliferating) cells ([2]; listed as MHY 1485) | HC regeneration by ad-Atoh1 (new HCs, MYO7A+/PVALB+) [2] | HC regeneration by ad-Atoh1 (new HCs, MYO7A+/PVALB+) ([2]; listed as MHY 1485) | HC regeneration by ad-Atoh1 (new HCs, MYO7A+/PVALB+) ([2]; listed as MYH1485) | number of EdU+ cells compared with Myc/NICD co-activation ([2]; NICD activation and MHY1485 treatment vs Myc/NICD co-activation) | number of EdU+ cells induced by Myc/NICD co-activation [3] |
| --- | --- | --- | --- | --- | --- | --- | --- | --- | --- | --- |
| O=[N+]([O-])c1ccc(Nc2nc(N3CCOCC3)nc(N3CCOCC3)n2)cc1 [MHY1485] | numerous proliferating cells | More hair cells were regenerated; also recorded: enhanced hair cell regeneration | Abundant EdU labeled cochlear cells | observed in the sensory epithelium and the limbus regions; also recorded: most proliferating cells; also recorded: Significantly more | most proliferating cells | most regenerated hair cells; also recorded: Significantly more | most proliferating cells and hair cells | more HC regeneration | fewer |  |
| COc1ccc(C[C@H](N)C(=O)N[C@H]2[C@@H](O)[C@H](n3cnc4c(N(C)C)ncnc43)O[C@@H]2CO)cc1 [puromycin] |  |  |  |  |  |  |  |  |  | suppresses proliferation |
